Laboratory results as given in patent US20120046224A1, “TREATMENT OF DIABETES AND METABOLIC SYNDROME” (NORDIC BIOSCIENCE A/S, priority 2009, published 2012).
No end group written: not given here.

How the values were obtained:
[1] = cited from earlier work
[2] = cited from earlier work; for glucose levels: fasting animals, parenterally administered
[3] = rabbits, injection, 600 MRC U per month or 50 MRC U single dose; cited from earlier work
[4] = i.m. 100 MRC units twice daily, 15 days; cited from earlier work
[5] = healthy volunteers, intramuscular; cited from earlier work
[6] = Weight gain in normal Sprague-Dawley rats; type: in vivo, rat; conditions: twice daily oral, salmon calcitonin 2 mg/kg/day with 5-CNAC 150 mg/kg/day, 8 weeks, vs control group
Protocol: (§1) A total of 40 rats were divided into 4 groups, two bilateral ovariectomy (OVX) groups and two normal groups.
(§2) The first day of dosing was day 0. Animals were dosed per oral 5 ml/kg. The compound solution was administered twice daily, the first dose at 7:00 AM and the second dose 8 hours later (between 3 and 4 PM) during the whole study. The dosing was done by oral gavage using a gastric tube connected to a 5 ml syringe. Feeding was ad libitum.

[7] = 100 MRC units per day, 2 months, cited from earlier work
[8] = rats or mice, cited from earlier work
DIO rats = test: Oral glucose tolerance test (OGTT) in DIO rats; type: in vivo, rat; conditions: for plasma insulin response during OGTT: peak 15 minutes after glucose, CT compared to 5-CNAC group; for maximum / peak blood glucose level during OGTT: reached 15 minutes after OGTT (CT), at 60 minutes (5-CNAC)
Protocol: (§3) A total of 48 selectively bred male DIO rats were used. At the beginning of the experiment, the animals had reached an age of 35 weeks, out of which 31 weeks were on high-fat diet.
(§4) At day −7, 21 and 42 fasted serum and urine samples were collected and whole body tissue composition was evaluated by MR scanning. At day 42, an oral glucose tolerance test (OGTT) was performed to evaluate glucose homeostasis in the rats. At day −1 the animals were stratified according to weight and whole body fat mass (assessed by a 4-in-1 EchoMRI scanner) to the different treatment groups. The groups were randomized in three teams by body weight.
First day of dosing was day 0. Animals were dosed per oral 5 ml/kg.
In order to test the glucose handling in different treatment groups, an oral glucose tolerance test (OGTT) was performed.

[9] = rhesus monkeys, parenteral, 5 day administration period; cited from earlier work
[10] = Ovariectomy (OVX)-induced weight gain in Sprague-Dawley rats; type: in vivo, rat
Protocol: as §1, §2
A total of 20 rats were bilaterally ovariectomized (OVX). The animals were treated once daily with either 5-CNAC 150 mg/kg/day alone or that amount of 5-CNAC in combination with Calcitonin 2 mg/kg/day for 8 weeks during which the weight was monitored once a week. Feeding was again ad libitum.
The first day of dosing was day 0. Animals were dosed per oral 5 ml/kg. The compound solution was administered once daily between 7:00 and 8:00 AM during the whole study per oral gavage using a gastric tube connected to a 5 ml syringe.

Sprague Dawley rats = test: OGTT in healthy lean Sprague Dawley rats; type: in vivo, rat
Protocol: The rats were treated bi daily for 5 weeks using the same dose as in the DIO rats.

CTX-II = test: Serum CTX-II after oral dosing in fasted rats; type: in vivo, rat; conditions: sCT 2 mg/kg, carrier 150 mg/kg
Protocol: Fasted rats were treated with oral doses of carrier alone (5-CNAC or SNAC), sCT alone or sCT in combination with carrier (5-CNAC or SNAC). Blood sampling was conducted at baseline, one, three and six hours after oral dosing, and serum was isolated. Concentrations of CTX-II were subsequently measured in the serum samples.
Rats were randomized according to weight into five groups and fasted over night. […] Blood samples were taken from tail vein at baseline, one, three and six hours after oral dosing. Serum was isolated from the blood samples and CTX-II concentrations were measured in undiluted serum samples. […] Each group contained 6 animals. Statistical analyses were conducted with one-way ANOVA and Bonferroni's Multiple Comparison Test to adjust for multiple tests. Error bars indicate standard error of mean (SEM). Asterisks indicate: **=p<0.01, ***=p<0.001.

[11] = latent diabetes in humans, infusion; cited from earlier work
[12] = intra-muscular, cited from earlier work
[13] = Body weight and whole body composition (MR scanning) in DIO rats; type: in vivo, rat; conditions: for increase in fat content (MR analysis): CT 2 mg/kg/day with 5-CNAC; for change in body weight: once daily oral, Calcitonin 2 mg/kg/day with 5-CNAC 150 mg/kg/day, or 5-CNAC 150 mg/kg/day alone
Protocol: as §3, §4
First day of dosing was day 0. Animals were dosed per oral 5 ml/kg. The compound solution was administered once daily at 7:00 AM-2:00 PM during the whole study (0-42 days) per oral gavage using a gastric tube connected to a 5 ml syringe (luer lock™. Becton).
To assess the distribution of the gained weight during the treatment program the animals were subjected to MR analysis after termination. Two parameters were investigated: 1) change in fatty mass and, 2) change in total water content.

[14] = rats, intracerebroventricular administration; cited from earlier work
[15] = 62.26 pmol/kg, patients with a duodenal ulcer; cited from earlier work
[16] = Paget's disease of the bone patients, injection; cited from earlier work
[17] = insulin dependent diabetic patients, intravenous infusion; cited from earlier work
rat hepatocytes = conditions: cited from earlier work
[18] = cited from earlier work; for fasting plasma glucose: rats and mice, intravenous bolus injection
[19] = healthy test persons, infusion; cited from earlier work
[20] = rats fed a high fat diet, delivered by osmotic pump; cited from earlier work
[21] = cited from earlier work; remark: listed apart in the source
[22] = 100 U by i.v. infusion; cited from earlier work

Salmon calcitonin [CT]
glucose level and glucagon ([1]; insulin dependent diabetics): a fall in glucose level along with the fall in glucagon | circulating glucagon and serum insulin ([1]; normal human volunteers, infused): a fall in circulating glucagon levels and a fall in serum insulin | glucose levels [2]: a rise in glucose levels | glucose level measured after fasting [3]: marked decrease in glucose level | carbohydrate metabolism after a mixed meal stimulus [4]: not seen to cause appreciable change in carbohydrate metabolism | blood glucose during a morning fast and glucose tolerance test [5]: inhibited decrease of blood glucose during a morning fast and impaired a glucose tolerance test | natural weight gain [6]: reduction of the natural weight gain | glucose tolerance ([7]; Paget's disease or osteoporosis patients): Glucose tolerance did not deteriorate significantly | basal plasma glucose [7]: significant increase in basal plasma glucose | short term food intake ([8]; acute parenteral administration): potently induced reduction in short term food intake | duration of the effect on food intake ([8]; parenteral): 3 days | AUC of change in insulin levels during OGTT (DIO rats): lowest change in insulin levels | AUC of net change in plasma glucose (glucose clearance during OGTT) (DIO rats): significantly increased glucose clearance during the OGTT | effect on AUC of change in glucose (DIO rats; CT compared to Rosiglitazone groups): markedly larger than the changes seen in the Rosiglitazone groups | peak glucose levels during OGTT (DIO rats; CT treated compared to 5CNAC group): strongly reduced peak glucose levels | basal insulin level to which insulin returns after the peak (DIO rats; OGTT): 4.53 µg/L | plasma insulin response during OGTT (DIO rats): attenuated insulin response | maximum / peak blood glucose level during OGTT (DIO rats): 8.2 mM | food intake [9]: reduce food intake in rhesus monkeys throughout a 5 day administration period | OVX-induced weight gain ([10]; once daily oral, 8 weeks): does not protect against OVX-induced weight gain | OVX-induced increase in bodyweight ([10]; twice daily oral, 7 weeks): protected partially against the OVX-induced increase in bodyweight | AUC of change in glucose during OGTT (Sprague Dawley rats): potently reduces glucose levels | increase of insulin level in response to OGTT (Sprague Dawley rats): approximately 0.5 μg/L | time until insulin level returned to basal (Sprague Dawley rats; OGTT): 60 min | AUC of change in insulin levels during OGTT (Sprague Dawley rats; between groups, p=0.08): the AUC of change is significant between the groups | basal glucose levels (Sprague Dawley rats; treated bi daily for 5 weeks, same dose as in DIO rats): lowered basal glucose levels | peak glucose level during OGTT (Sprague Dawley rats; vs vehicle (5-CNAC) group): prevented this drastic peak | serum CTX-II concentration (CTX-II; one hour after oral dosing, vs carrier alone): significantly lowered the CTX-II concentration | serum CTX-II concentration (CTX-II; three and six hours after oral dosing): return to the baseline level | serum level of insulin and blood sugar [11]: reducing the serum level of insulin and increasing the blood sugar | integrated glucose areas under plasma glucose curves ([12]; humans): approximately doubling | response to a glucose tolerance test ([12]; normal humans): a deterioration in response to a glucose tolerance test | increase in fat content (MR analysis) ([13]; compared to 5-CNAC and vehicle groups): a significant increase compared to the 5-CNAC and vehicle groups | increase in fat content (MR analysis) ([13]; compared to rosiglitazone group, p<0.0001): significantly lower increase in the fat content compared to rosiglitazone group | change in body weight [13]: Neither the CT treated group nor the 5-CNAC group display any change in their body weight | glucose stimulated release of insulin [14]: increased glucose stimulated release of insulin | post-prandial insulin release [15]: post-prandial insulin release was abolished | serum glucose and serum insulin [16]: a moderate immediate rise in serum glucose and a slight decrease in serum insulin | glucose rise in arginine tolerance test [17]: abolished the glucose rise normally seen in an arginine tolerance test | effect on rat hepatocytes and other cells (rat hepatocytes): little effect | fasting plasma glucose [18]: elevation of fasting plasma glucose

human calcitonin (CGNLSTCMLGTYTQDFNKFHTFPQTAIGVGAP; ends and bridges not checked; cysteine pairing not given here; listed as Homo sapiens)
glucose assimilation and insulin output [19]: significant impairment of glucose assimilation and insulin output | serum glucose and serum insulin [16]: a moderate immediate rise in serum glucose and a slight decrease in serum insulin

O=C(O)CCCCCCCNC(=O)c1cc(Cl)ccc1O [5-CNAC, N-(5-chlorosalicyloyl)-8-aminocaprylic acid]
plasma insulin response during OGTT (DIO rats): the levels stay in the hyperinsulinaemic state throughout the OGTT | maximum / peak blood glucose level during OGTT (DIO rats): 9.8 mM | change in body weight [13]: Neither the CT treated group nor the 5-CNAC group display any change in their body weight

amylin (KCNTATCATQRLANFLVHSSNNFGAILSSTNVGSNTY; not fully specified (C-terminus, bridges); cysteine pairing not given here; UniProt P10997 34-70, looked up) [calcitonin family peptide hormone, literature results]
weight gain [20]: caused a reduction in weight gain | glucose levels [2]: a rise in glucose levels | rise in glucose in oral glucose tolerance test ([2]; rats, parenterally administered shortly before the test): reduced the rise in glucose | plasma glucose ([21]; in the absence of a meal): associated with a rise in plasma glucose in rodents, but not in humans | rise in plasma glucose ([21]; in the context of a meal, rats, dogs and humans): suppressed a rise in plasma glucose | effect on rat hepatocytes and other cells (rat hepatocytes): little effect

calcitonin
glycemic recovery ([18]; hypoglycaemic rat, compared to glucagon): a greater glycemic recovery than glucagon | glycaemia in the course of an OGTT [22]: a persistence of hyperglycaemia | insulin secretion [22]: An inhibitory action of calcitonin on insulin secretion was also observed

rat calcitonin (CGNLSTCMLGTYTQDLNKFHTFPQTSIGVGAP; ends and bridges not checked; cysteine pairing not given here)
effect on rat hepatocytes and other cells (rat hepatocytes): little effect | fasting plasma glucose [18]: a lesser effect
